Source: ChEMBL document CHEMBL6109038, “Discovery of potent dihydro-oxazinoquinolinone inhibitors of GuaB for the treatment of tuberculosis” (Bioorg Med Chem Lett, 2025)
Converted amounts (≈) assume the structure as drawn.

Columns and labels:
[1] = tested on: Mycobacterium tuberculosis; experiment: Antitubercular activity against Mycobacterium tuberculosis assessed as inhibition of bacterial growth; type: functional
[2] = tested on: Mycobacterium tuberculosis; experiment: Antitubercular activity against Mycobacterium tuberculosis H37RvMA assessed as inhibition of bacterial growth by Alamar blue dye based broth microdilution method; type: functional
[3] = tested on: Mycobacterium tuberculosis; experiment: Antitubercular activity against Mycobacterium tuberculosis H37Ra assessed as inhibition of bacterial growth; type: functional
Cytochrome P450 3A4 [4] = target: T1, Cytochrome P450 3A4 (Homo sapiens, UniProt P08684); experiment: Inhibition of CYP3A4 (unknown origin) using testosterone as substrate; type: ADME
[5] = Clearance in human liver microsomes; type: ADME, Microsome
[6] = Cytotoxicity against human primary hepatocytes in absence of serum; type: toxicity, cell-based, Hepatocyte
Cytochrome P450 2C8 = target: T2, Cytochrome P450 2C8 (Homo sapiens, UniProt P10632); experiment: Inhibition of CYP2C8 (unknown origin); type: ADME
T2 sequence (P10632 whole entry): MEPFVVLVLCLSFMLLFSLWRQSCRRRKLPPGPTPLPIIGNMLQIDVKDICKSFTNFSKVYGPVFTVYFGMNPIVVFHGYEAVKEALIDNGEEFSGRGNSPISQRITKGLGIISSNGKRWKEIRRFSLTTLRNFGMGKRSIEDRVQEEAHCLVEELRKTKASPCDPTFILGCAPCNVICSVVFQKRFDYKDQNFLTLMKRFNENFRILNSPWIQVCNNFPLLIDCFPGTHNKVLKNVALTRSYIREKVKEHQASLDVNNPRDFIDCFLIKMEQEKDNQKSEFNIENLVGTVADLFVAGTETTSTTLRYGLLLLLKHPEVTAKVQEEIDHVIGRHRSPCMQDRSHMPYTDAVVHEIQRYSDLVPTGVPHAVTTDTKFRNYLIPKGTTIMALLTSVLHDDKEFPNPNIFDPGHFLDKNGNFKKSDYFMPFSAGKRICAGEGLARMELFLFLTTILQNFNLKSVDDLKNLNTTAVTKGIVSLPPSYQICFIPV

IMPDH = experiment: Inhibition of human IMPDH; type: toxicity
[7] = Clearance in mouse; type: ADME, organism-based; conditions: in vivo
[8] = Lipophilicity, logD of the compound measured at pH 7.4; type: physicochemical; conditions: buffer
hERG = hERG (Homo sapiens, UniProt Q12809); experiment: Inhibition of hERG at 10 uM relative to control; type: toxicity
Cytochrome P450 2D6 = Cytochrome P450 2D6 (Homo sapiens, UniProt P10635); experiment: Inhibition of CYP2D6 (unknown origin); type: ADME
Cytochrome P450 3A4 [9] = target: T1, Cytochrome P450 3A4; experiment: Inhibition of CYP3A4 (unknown origin); type: ADME
[10] = Oral bioavailability in mouse; type: ADME, organism-based; conditions: in vivo
[11] = Cytotoxicity against human primary hepatocytes in presence of serum; type: toxicity, cell-based, Hepatocyte
[12] = target: Inosine-5'-monophosphate dehydrogenase (Mycobacterium tuberculosis (strain ATCC 25618 / H37Rv), UniProt P9WKI7); experiment: Inhibition of Mycobacterium tuberculosis GuaB
Cytochrome P450 1A2 = target: T3, Cytochrome P450 1A2 (Homo sapiens, UniProt P05177); experiment: Inhibition of CYP1A2 (unknown origin); type: ADME
T3 sequence (P05177 whole entry): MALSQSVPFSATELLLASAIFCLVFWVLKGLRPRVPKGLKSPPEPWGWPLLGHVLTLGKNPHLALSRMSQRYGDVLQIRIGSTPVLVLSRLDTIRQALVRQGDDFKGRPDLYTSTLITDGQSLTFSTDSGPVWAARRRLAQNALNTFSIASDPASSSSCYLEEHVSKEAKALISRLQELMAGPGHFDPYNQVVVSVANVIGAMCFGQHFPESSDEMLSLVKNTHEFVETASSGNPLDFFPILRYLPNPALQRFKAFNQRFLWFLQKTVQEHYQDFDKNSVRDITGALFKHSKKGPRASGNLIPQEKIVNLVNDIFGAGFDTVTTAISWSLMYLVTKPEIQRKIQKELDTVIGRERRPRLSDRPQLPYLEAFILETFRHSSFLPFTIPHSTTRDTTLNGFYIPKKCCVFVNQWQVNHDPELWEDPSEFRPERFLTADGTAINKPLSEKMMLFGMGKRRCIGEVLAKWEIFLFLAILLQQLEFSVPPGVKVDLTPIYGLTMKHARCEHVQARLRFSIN

[13] = tested on: Mycobacterium tuberculosis; experiment: Antitubercular activity against Mycobacterium tuberculosis H37Rv assessed as inhibition of bacterial growth; type: functional
Cytochrome P450 2C9 = Cytochrome P450 2C9 (Homo sapiens, UniProt P11712); experiment: Inhibition of CYP2C9 (unknown origin); type: ADME
[14] = tested on: Mycobacterium tuberculosis; experiment: Antitubercular activity against Mycobacterium tuberculosis ATCC 27294 assessed as inhibition of bacterial growth measured after 1 week by broth microdilution method; type: functional; conditions: ATCC 27294, 168 h, time 1 weeks

T1 sequence (P08684 whole entry): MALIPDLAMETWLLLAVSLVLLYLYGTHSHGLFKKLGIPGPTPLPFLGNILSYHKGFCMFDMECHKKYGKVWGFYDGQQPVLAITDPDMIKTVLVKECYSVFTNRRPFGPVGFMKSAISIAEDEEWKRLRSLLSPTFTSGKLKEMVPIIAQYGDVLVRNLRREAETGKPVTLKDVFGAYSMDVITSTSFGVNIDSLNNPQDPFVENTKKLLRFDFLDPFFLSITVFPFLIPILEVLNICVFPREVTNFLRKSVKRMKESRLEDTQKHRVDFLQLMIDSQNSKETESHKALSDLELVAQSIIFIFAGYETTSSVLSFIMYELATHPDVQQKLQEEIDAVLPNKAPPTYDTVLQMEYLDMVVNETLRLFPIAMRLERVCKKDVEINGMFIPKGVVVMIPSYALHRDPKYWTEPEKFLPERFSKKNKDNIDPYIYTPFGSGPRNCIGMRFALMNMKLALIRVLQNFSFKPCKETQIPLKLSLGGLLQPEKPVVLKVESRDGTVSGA
Chain of hERG (Q12809 whole entry): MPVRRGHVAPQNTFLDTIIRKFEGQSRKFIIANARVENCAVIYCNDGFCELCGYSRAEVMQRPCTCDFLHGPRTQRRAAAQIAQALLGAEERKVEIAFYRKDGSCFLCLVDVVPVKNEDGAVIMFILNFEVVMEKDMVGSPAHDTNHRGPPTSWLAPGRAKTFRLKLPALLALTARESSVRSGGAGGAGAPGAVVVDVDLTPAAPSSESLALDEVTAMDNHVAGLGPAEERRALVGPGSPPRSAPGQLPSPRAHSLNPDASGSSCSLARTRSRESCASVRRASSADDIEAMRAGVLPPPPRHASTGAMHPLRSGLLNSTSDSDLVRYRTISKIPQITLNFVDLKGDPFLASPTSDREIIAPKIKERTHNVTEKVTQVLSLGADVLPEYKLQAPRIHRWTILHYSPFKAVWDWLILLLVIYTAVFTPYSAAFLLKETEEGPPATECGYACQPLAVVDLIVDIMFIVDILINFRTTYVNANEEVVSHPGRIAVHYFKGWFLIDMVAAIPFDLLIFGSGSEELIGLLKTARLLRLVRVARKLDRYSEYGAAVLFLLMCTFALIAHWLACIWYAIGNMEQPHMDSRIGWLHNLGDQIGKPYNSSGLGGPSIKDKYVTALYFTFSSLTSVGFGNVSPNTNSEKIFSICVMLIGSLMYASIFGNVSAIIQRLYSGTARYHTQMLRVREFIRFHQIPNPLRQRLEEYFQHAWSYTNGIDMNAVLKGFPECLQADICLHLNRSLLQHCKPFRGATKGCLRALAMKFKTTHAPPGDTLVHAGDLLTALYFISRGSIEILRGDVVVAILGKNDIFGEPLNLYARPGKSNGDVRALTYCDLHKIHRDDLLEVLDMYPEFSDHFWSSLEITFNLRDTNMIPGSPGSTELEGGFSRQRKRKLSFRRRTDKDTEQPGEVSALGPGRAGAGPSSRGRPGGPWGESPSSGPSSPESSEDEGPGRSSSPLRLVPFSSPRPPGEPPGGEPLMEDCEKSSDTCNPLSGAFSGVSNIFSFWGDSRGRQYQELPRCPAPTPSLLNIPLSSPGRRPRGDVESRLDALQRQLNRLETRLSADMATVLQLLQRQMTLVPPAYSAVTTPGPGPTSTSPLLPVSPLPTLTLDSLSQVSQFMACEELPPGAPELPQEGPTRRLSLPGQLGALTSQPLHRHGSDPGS
Chain of Cytochrome P450 2D6 (P10635 whole entry): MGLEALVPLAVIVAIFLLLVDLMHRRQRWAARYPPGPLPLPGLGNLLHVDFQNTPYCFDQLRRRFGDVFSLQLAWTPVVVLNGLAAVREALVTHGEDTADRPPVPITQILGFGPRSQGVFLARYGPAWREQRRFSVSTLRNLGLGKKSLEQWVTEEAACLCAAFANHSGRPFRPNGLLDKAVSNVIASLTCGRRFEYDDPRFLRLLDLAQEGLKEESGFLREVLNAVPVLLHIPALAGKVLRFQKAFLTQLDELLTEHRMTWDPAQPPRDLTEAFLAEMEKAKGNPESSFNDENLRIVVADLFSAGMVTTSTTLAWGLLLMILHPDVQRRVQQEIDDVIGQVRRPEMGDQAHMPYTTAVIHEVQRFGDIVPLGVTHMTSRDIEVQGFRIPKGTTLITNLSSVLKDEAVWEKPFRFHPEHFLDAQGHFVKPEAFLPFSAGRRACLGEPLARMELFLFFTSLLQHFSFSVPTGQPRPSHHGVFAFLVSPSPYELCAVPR
Chain of Inosine-5'-monophosphate dehydrogenase (P9WKI7 whole entry): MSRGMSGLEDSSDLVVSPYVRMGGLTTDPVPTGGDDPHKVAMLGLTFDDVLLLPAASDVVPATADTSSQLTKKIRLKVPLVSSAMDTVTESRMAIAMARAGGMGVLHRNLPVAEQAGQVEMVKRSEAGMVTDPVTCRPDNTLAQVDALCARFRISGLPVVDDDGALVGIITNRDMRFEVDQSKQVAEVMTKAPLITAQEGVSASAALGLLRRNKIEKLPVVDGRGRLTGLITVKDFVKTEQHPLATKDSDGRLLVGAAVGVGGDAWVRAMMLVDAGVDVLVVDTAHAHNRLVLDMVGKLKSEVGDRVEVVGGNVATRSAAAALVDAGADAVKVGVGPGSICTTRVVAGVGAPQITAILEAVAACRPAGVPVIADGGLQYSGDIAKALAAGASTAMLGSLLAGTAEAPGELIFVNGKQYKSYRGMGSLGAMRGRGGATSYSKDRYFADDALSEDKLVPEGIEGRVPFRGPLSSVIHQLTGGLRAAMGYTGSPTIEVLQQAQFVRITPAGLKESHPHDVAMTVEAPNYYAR
Chain of Cytochrome P450 2C9 (P11712 whole entry): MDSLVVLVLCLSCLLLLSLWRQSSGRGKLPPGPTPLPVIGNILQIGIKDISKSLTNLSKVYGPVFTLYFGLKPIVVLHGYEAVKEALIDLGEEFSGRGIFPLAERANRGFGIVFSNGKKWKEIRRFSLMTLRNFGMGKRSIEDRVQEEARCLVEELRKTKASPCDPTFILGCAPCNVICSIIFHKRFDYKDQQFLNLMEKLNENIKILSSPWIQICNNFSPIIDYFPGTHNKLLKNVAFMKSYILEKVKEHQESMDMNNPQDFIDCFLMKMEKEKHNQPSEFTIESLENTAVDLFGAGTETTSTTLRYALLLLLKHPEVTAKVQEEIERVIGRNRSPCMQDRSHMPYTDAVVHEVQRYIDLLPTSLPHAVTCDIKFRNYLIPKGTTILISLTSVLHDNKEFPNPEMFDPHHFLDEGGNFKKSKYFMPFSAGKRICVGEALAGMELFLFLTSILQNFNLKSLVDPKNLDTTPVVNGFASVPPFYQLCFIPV

Row | SMILES | MIC [3] [µM] | IC50 (Cytochrome P450 3A4 [4]) [µM] | CLhep predicted [5] [mL/min/kg] | logD [8] | other results
1 | Cc1n[nH]c(C)c1S(=O)(=O)Nc1ccc2c[nH]nc2c1 |  |  |  |  | MIC [1]: 2 µM (≈ 0.583 µg/mL)
2 | O=C(C1CCCCC1)N1CCN(S(=O)(=O)c2cccc3cnccc23)CC1 |  |  |  |  | MIC [2]: 2 µM (≈ 0.775 µg/mL)
3 | C[C@@H](Oc1ccc(-c2ccn[nH]2)cc1)c1cncc(-c2nc(Cl)c[nH]2)c1 | 0.11 (≈ 0.0402 µg/mL) | 0.24 | 12 |  | 
4 | C[C@@H](Oc1ccc2c(=O)cc3n(c2c1)CCOC3)c1cc(-n2ccc(Cl)n2)cnn1 | 0.26 (≈ 0.11 µg/mL) | > 10 | 5.3 | 2.3 | IC50 [6]: > 100 µM; IC50 (Cytochrome P450 2C8): > 10 µM; IC50 (IMPDH): > 50 µM; clearance [7]: 35 mL/min/kg; inhibition at 10 µM (hERG): 28%; IC50 (Cytochrome P450 2D6): > 10 µM; IC50 (Cytochrome P450 3A4 [9]): > 10 µM; bioavailability [10]: 5.2%; IC50 [11]: > 100 µM; IC50 [12]: 0.0017 µM; IC50 (Cytochrome P450 1A2): > 10 µM
5 | C[C@@H](Oc1ccc2ncc3c(c2c1)CCOC3)c1cncc(-c2nc(Cl)c[nH]2)c1 | < 0.003 | 0.57 | 19 |  | MIC [13]: 0.039 µM (≈ 0.0159 µg/mL); IC50 (Cytochrome P450 2C9): < 10 µM; IC50 (Cytochrome P450 2C8): < 10 µM; IC50 (Cytochrome P450 2D6): < 10 µM; IC50 (Cytochrome P450 3A4 [9]): < 10 µM; IC50 (Cytochrome P450 1A2): < 10 µM
6 | C[C@@H](Oc1ccc2c(=O)cc3n(c2c1)CCOC3)c1cncc(-c2nc(C(F)(F)F)c[nH]2)c1 | 0.099 (≈ 0.0452 µg/mL) | 4.3 | 16 | 3 | 
7 | C/C(=N/O)c1cccc(C(C)(C)NC(=O)Nc2ccc(Cl)c(C(=O)N(C)C)c2)c1 |  |  |  |  | MIC [14]: 16 µM (≈ 6.67 µg/mL)
8 | C[C@@H](Oc1ccc2c(=O)cc3n(c2c1)CCOC3)c1cncc(-c2nc(C#N)c[nH]2)c1 | 0.39 (≈ 0.161 µg/mL) | > 10 | 5.5 | 2.1 | 
9 | C[C@@H](Oc1cccc(-c2ccn[nH]2)c1)c1cncc(-c2nc(Cl)c[nH]2)c1 | 3.1 (≈ 1.13 µg/mL) | 0.32 | 16 |  | 
10 | C[C@@H](Oc1cc(-c2ccn[nH]2)cc(N2CCOCC2)c1)c1cncc(-c2nc(Cl)c[nH]2)c1 | 0.18 (≈ 0.0812 µg/mL) |  | 16 |  | 
11 | C[C@@H](Oc1ccc2c(=O)cc3n(c2c1)CCOC3)c1cncc(-n2ccc(C#N)n2)c1 | 0.18 (≈ 0.0744 µg/mL) |  | 11 | 1.7 | 
12 | C[C@H](Nc1ccc2ncc3c(c2c1)CCOC3)C(=O)Nc1ccc(Cl)nc1 | 0.035 (≈ 0.0134 µg/mL) |  | 16 |  | MIC [13]: 0.058 µM (≈ 0.0222 µg/mL); clearance [7]: 132 mL/min/kg
13 | C[C@@H](Oc1ccc2c(=O)cc3n(c2c1)CCOC3)c1cc(-n2ccc(C(F)(F)F)n2)cnn1 | 0.58 (≈ 0.265 µg/mL) | > 10 | 7 | 2.1 | 
14 | C[C@@H](Oc1ccc2c(=O)cc3n(c2c1)CCOC3)c1cncc(-n2ccc(Cl)n2)c1 | 0.091 (≈ 0.0385 µg/mL) | > 10 | 16 | 2.8 | 
15 | C[C@@H](Oc1ccc2c(=O)cc3n(c2c1)CCOC3)c1cc(-n2ccc(OC(F)F)n2)cnn1 | 0.29 (≈ 0.132 µg/mL) | > 10 | < 3.9 | 1.6 | inhibition at 10 µM (hERG): 70%
16 | C[C@@H](Oc1ccc2ncc(CO)cc2c1)c1cncc(-c2nc(Cl)c[nH]2)c1 | 0.007 (≈ 0.00267 µg/mL) | 2.1 | 12 |  | 
17 | C[C@@H](Oc1ccc2c(=O)cc3n(c2c1)CCOC3)c1cncc(-n2ccc(C(F)(F)F)n2)c1 | 0.29 (≈ 0.132 µg/mL) | > 10 | 18 | 3.1 | 
18 | CC(Oc1ccc2c(=O)cc3n(c2c1)CCOC3)c1cncc(-c2nc(Cl)c[nH]2)c1 (racemic) | 0.12 (≈ 0.0507 µg/mL) | 3.7 | 13 | 2.2 | 
